Data taken from patent publication US8349846B2, “Fused pyrimidine derivatives as TRPV3 modulators” (Glenmark Pharmaceuticals, S.A., priority 2008, dated 2013).
Where a name gives a salt, the structure may show the parent alone.

Biological target: T1, Human TRPV3 (Homo sapiens, UniProt Q8NET8)
T1 construct: expressed in transfected cells; host or cells: CHO cells (selected with G-418)
T1 sequence (Q8NET8 1-790): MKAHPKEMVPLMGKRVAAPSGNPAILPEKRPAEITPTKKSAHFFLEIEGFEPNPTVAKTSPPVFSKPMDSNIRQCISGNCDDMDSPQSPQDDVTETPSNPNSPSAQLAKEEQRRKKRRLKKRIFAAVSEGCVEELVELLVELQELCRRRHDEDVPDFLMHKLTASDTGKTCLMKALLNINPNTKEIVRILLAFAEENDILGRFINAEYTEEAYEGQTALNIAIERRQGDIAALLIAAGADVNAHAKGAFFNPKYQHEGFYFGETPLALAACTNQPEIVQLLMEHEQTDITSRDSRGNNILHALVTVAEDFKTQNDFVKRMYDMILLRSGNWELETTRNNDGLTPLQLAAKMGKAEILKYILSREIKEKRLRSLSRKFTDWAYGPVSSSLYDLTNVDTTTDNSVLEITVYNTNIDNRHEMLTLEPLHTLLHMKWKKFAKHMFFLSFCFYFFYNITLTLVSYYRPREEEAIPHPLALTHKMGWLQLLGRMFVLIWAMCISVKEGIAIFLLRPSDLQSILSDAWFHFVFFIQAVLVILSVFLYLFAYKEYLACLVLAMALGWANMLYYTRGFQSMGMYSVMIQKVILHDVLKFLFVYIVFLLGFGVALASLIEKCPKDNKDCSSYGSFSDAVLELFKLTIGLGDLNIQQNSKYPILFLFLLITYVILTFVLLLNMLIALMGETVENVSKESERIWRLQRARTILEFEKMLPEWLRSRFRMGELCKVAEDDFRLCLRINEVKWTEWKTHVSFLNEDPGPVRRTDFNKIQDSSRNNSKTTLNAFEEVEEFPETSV
Assay: Screening for TRPV3 antagonist using the 45Calcium uptake assay (inhibition of 2-APB induced cellular uptake of radioactive calcium)
Assay type: cell-based
Settings: Human TRPV3 expressing CHO cells, 2-APB 500 μM; for inhibition at 1 µM / inhibition at 10 µM: CHO; for inhibition at 1 µM: read-out: Percentage inhibition at 1.0 μM; for inhibition at 10 µM: 10.0 μM test compound, read-out: Percentage inhibition at 10.0 μM
Description: The illustrative examples of the present invention are screened for TRPV3 activity according to a modified procedure described in Tóth, A., Kedei, N., Wang, Y. and Blumberg, P. M. Life Sciences (2003), 73, 487-498. The screening of the compounds can be carried out by other methods and procedures known to a person skilled in the art. Such screening methods may be found in (a) Hu, H.-Z. et al. J. Biol. Chem. (2004), 279, 35741-35747; (b) Smith, G. D. et al. Nature (2002), 418, 186-190; (c) Peier, A. M. et al. Science (2002), 296, 2046-2049.
Screening for TRPV3 Antagonist Using the ^45Calcium Uptake Assay:
The inhibition of TRPV3 receptor activation was followed as inhibition of 2-aminoethxydiphenylborate (2-APB) induced cellular uptake of radioactive calcium. Test compounds were dissolved in dimethyl sulfoxide (DMSO) to prepare 20 mM stock solution and then diluted using plain medium with DMEM/F-12 containing 1.8 mM CaCl2 to get desired concentration. Final concentration of DMSO in the reaction was 0.5% (v/v). Human TRPV3 expressing CHO cells were grown in DMEM/F-12 medium with 10% FBS, 1% penicillin-streptomycin solution, 400 μg/ml of G-418. Cells were seeded 24 h prior to the assay in 96 well plates so as to get ˜50,000 cells per well on the day of experiment. Cells were treated with test compounds for 10 minutes followed by addition of 2-APB at a final concentration of 500 μM and 5 μCi/ml ^45Ca^+2 for 4 minutes. Cells were washed and lysed using buffer containing 1% Triton X-100, 0.1% deoxycholate and 0.1% SDS. Radioactivity in the lysate was measured in Packardt Top count after addition of liquid scintillant. Concentration response curves were plotted as a % of maximal response obtained in the absence of test antagonist. IC50 value was calculated from concentration response curve by nonlinear regression analysis using GraphPad PRISM software.
Percentage inhibition at concentrations of 1.0 μM and 10.0 μM are given in the table along with IC50 (nM) values for selected examples.

inhibition at 1 µM (1.0 μM test compound) [%] | inhibition at 10 µM [%] | IC50 [µM] | Percentage inhibition at 1.0 μM (1.0 μM test compound) [%] | SMILES
0.5 | 19.4 | – | – | O=c1c(-c2ccccc2)c(/C=C/c2ccc(Cl)cc2)nc2ccccn12 [Example 1, 2-[(E)-2-(4-Chlorophenyl)vinyl]-3-phenyl-4H-pyrido[1,2-a]pyrimidin-4-one]
5.7 | 11.2 | – | – | O=c1c(-c2ccc(C(F)(F)F)cc2)c(/C=C/c2cccnc2)nc2ccccn12 [Example 2, 2-{(E)-2-(Pyridin-3-yl)vinyl}-3-(4-trifluoromethyl)phenyl-4H-pyrido[1,2-a]pyrimidin-4-one]
14.4 | 77.9 | 1 to 2.5 | – | O=c1c(-c2ccc(C(F)(F)F)cc2)c(/C=C/c2cccs2)nc2ccccn12 [Example 3, 2-[(E)-2-(2-Thienyl)vinyl]-3-[4-(trifluoromethyl)phenyl]-4H-pyrido[1,2-a]pyrimidin-4-one]
25.3 | 74 | – | – | O=c1c(-c2ccc(C(F)(F)F)cc2)c(/C=C/c2cccc3c2OCO3)nc2ccccn12 [Example 4, 2-[(E)-2-(1,3-Benzodioxol-4-yl)vinyl]-3-[4-(trifluoromethyl)phenyl]-4H-pyrido[1,2-a]pyrimidin-4-one]
– | 76.2 | – | 41.6 | COc1cccc(/C=C/c2nc3ccccn3c(=O)c2-c2ccc(C#N)cc2)c1OC1CCCC1 [Example 5, 4-{2-[(E)-2-[2-(Cyclopentyloxy)-3-methoxyphenyl)vinyl]-4-oxo-4H-pyrido[1,2-a]pyrimidin-3-yl}benzonitrile]
71.5 | 67.5 | – | – | CCCOc1c(/C=C/c2nc3ccccn3c(=O)c2-c2ccc(C(F)(F)F)cc2)cccc1OC [Example 6]
77.9 | 98.9 | – | – | CCCOc1c(/C=C/c2nc3ccccn3c(=O)c2-c2ccc(C#N)cc2)cccc1OC [Example 7]
76.3 | 89.7 | – | – | CCCCOc1c(/C=C/c2nc3ccccn3c(=O)c2-c2ccc(C(F)(F)F)cc2)cccc1OC [Example 8]
82.8 | 100 | – | – | CCCCOc1c(/C=C/c2nc3ccccn3c(=O)c2-c2ccc(C#N)cc2)cccc1OC [Example 10]
69 | 86.5 | – | – | CCCCCOc1c(/C=C/c2nc3ccccn3c(=O)c2-c2ccc(C(F)(F)F)cc2)cccc1OC [Example 11]
87.9 | 96.5 | < 0.5 | – | CCCCCOc1c(/C=C/c2nc3ccccn3c(=O)c2-c2ccc(C#N)cc2)cccc1OC [Example 12, 4-{2-[(E)-2-[3-Methoxy-2-pentyloxyphenyl)vinyl]-4-oxo-4H-pyrido[1,2-a]pyrimidin-3-yl}benzonitrile]
58 | 77.3 | – | – | CCCCCCOc1c(/C=C/c2nc3ccccn3c(=O)c2-c2ccc(C(F)(F)F)cc2)cccc1OC [Example 13]
85.1 | 92.3 | < 0.5 | – | CCCCCCOc1c(/C=C/c2nc3ccccn3c(=O)c2-c2ccc(C#N)cc2)cccc1OC [Example 14]
0 | 31.7 | – | – | COc1cccc(/C=C/c2nc3ccccn3c(=O)c2-c2ccc(C(F)(F)F)cc2)c1OCCN(C)C [Example 15, 2-[(E)-2-{2-[2-(Dimethylamino)ethoxy]-3-methoxyphenyl}vinyl]-3-(4-trifluoromethylphenyl)-4H-pyrido[1,2-a]pyrimidin-4-one hydrochloride]
33.8 | 79.8 | – | – | COc1cccc(/C=C/c2nc3ccccn3c(=O)c2-c2ccccc2)c1OCC1CC1 [Example 16, 2-{(E)-2-[2-(Cyclopropylmethoxy)-3-methoxyphenyl]vinyl}-3-phenyl-4H-pyrido[1,2-a]-pyrimidin-4-one]
83.3 | 95.3 | < 0.5 | – | COc1cccc(/C=C/c2nc3ccccn3c(=O)c2-c2ccc(C(F)(F)F)cc2)c1OCC1CC1 [Example 17]
79.5 | 93.5 | < 0.5 | – | COc1cccc(/C=C/c2nc3ccccn3c(=O)c2-c2ccc(OC(F)(F)F)cc2)c1OCC1CC1 [Example 18]
87.8 | 98.7 | < 0.5 | – | COc1cccc(/C=C/c2nc3ccccn3c(=O)c2-c2ccc(C#N)cc2)c1OCC1CC1 [Example 19]
45.9 | 76.7 | 1 to 2.5 | – | COc1cccc(/C=C/c2nc3ccccn3c(=O)c2-c2ccccc2)c1OC1CCCC1 [Example 20, 2-{(E)-2-[2-(Cyclopentyloxy)-3-methoxyphenyl]vinyl}-3-phenyl-4H-pyrido[1,2-a]-pyrimidin-4-one]
27.2 | 39.3 | – | – | COc1cccc(/C=C/c2nc3ccccn3c(=O)c2-c2cc(F)cc(F)c2)c1OC1CCCC1 [Example 21, 2-{(E)-2-[2-(Cyclopentyloxy-3-methoxy)phenyl]vinyl}-3-(3,5-difluoro) phenyl-4H-pyrido[1,2-a]pyrimidin-4-one]
22.7 | 34.6 | – | – | COc1cccc(/C=C/c2nc3ccccn3c(=O)c2-c2cccc(C(F)(F)F)c2)c1OC1CCCC1 [Example 22, 2-{(E)-2-[(2-Cyclopentyloxy-3-methoxy)phenyl]vinyl}-3-(3-trifluoromethyl)phenyl-4H-pyrido[1,2-a]pyrimidin-4-one]
62.8 | 86.7 | 0.5 to 1 | – | COc1cccc(/C=C/c2nc3ccccn3c(=O)c2-c2ccc(C(F)(F)F)cc2)c1OC1CCCC1 [Example 23, 2-{(E)-2-[2-(Cyclopentyloxy)-3-methoxyphenyl]vinyl}-3-(4-trifluoromethyl)phenyl-4H-pyrido[1,2-a]pyrimidin-4-one]
20.6 | 3.6 | 1 to 2.5 | – | COc1cccc(/C=C/c2nc3ccccn3c(=O)c2-c2ccc(OC(F)(F)F)cc2)c1OC1CCCC1 [Example 24, 2-{(E)-2-[(2-Cyclopentyloxy-3-methoxy)phenyl]vinyl}-3-(4-trifluoromethoxy)phenyl-4H-pyrido[1,2-a]pyrimidin-4-one]
20.7 | 93.1 | 1 to 2.5 | – | COc1cccc(/C=C/c2nc3ccccn3c(=O)c2-c2cccc(O)c2)c1OC1CCCC1 [Example 25, 2-{(E)-2-[2-(Cyclopentyloxy-3-methoxy)phenyl]vinyl}-3-(3-hydroxy)phenyl-4H-pyrido-[1,2-a]-pyrimidin-4-one]
48 | 69.3 | – | – | COc1cccc(-c2c(/C=C/c3cccc(OC)c3OC3CCCC3)nc3ccccn3c2=O)c1 [Example 26, 2-{(E)-2-[(2-Cyclopentyloxy-3-methoxy)phenyl]vinyl}-3-(3-methoxy)phenyl-4H-pyrido-[1,2-a]pyrimidin-4-one]

SMILES | inhibition at 1 µM (1.0 μM test compound) [%] | inhibition at 10 µM [%] | IC50 [µM] | Percentage inhibition at 1.0 μM (1.0 μM test compound) [%]
CCCCOc1c(/C=C/c2nc3ccccn3c(=O)c2-c2ccc(OC(F)(F)F)cc2)cccc1OC [Example 9, 2-[(E)-2-[2-Butoxy-3-methoxyphenyl)vinyl]-3-[4-(trifluoromethoxy)phenyl]-4H-pyrido-[1,2-a]pyrimidin-4-one] | 74.6 | 89 | 0.5 to 1 | –
